Assays:
pigweed = experiment: Test D preemergence; format: in vivo, Amaranthus retroflexus
Method in brief: (§1)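 Plant response is a visual score from 0 (no effect) to 100 (complete control) relative to controls. Plants were kept in a controlled growth environment for 7 to 21 days after spraying. Preemergence treatments went onto silt loam soil; postemergence ones onto 1- to 4-leaf seedlings.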

chickweed = experiment: Test D postemergence; format: in vivo, Stellaria media
Source text: Seeds of plant species selected from bluegrass (annual bluegrass, Poa annua), blackgrass (Alopecurus myosuroides), canarygrass (littleseed canarygrass, Phalaris minor), chickweed (common chickweed, Stellaria media), galium (catchweed bedstraw, Galium aparine), bromegrass, downy (downy bromegrass, Bromus tectorum), field poppy (Papaver rhoeas), field violet (Viola arvensis), green foxtail (Setaria viridis), deadnettle (henbit deadnettle, Lamium amplexicaule), Italian ryegrass (Lolium multiflorum), kochia (Kochia scoparia), lambsquarters (Chenopodium album), oilseed rape (Brassica napus), pigweed (Amaranthus retroflexus), chamomile (scentless chamomile, Matricaria inodora), Russian thistle (Salsola kali), speedwell (bird's-eye speedwell, Veronica persica), spring barley (Hordeum vulgare), spring wheat (Triticum aestivum), wild buckwheat (Polygonum convolvulus), wild mustard (Sinapis arvensis), wild oat (Avena fatua), wild radish (Raphanus raphanistrum), windgrass (Apera spica-venti), winter barley (Hordeum vulgare), and winter wheat (Triticum aestivum) were planted into a silt loam soil and treated preemergence with test chemicals formulated in a non-phytotoxic solvent mixture which included a surfactant.
At the same time, these species were planted in pots containing Redi-Earth® planting medium (Scotts Company, 14111 Scottslawn Road, Marysville, Ohio 43041) comprising spaghnum peat moss, vermiculite, wetting agent and starter nutrients and treated with postemergence applications of the test chemicals formulated in the same manner. Plants ranged in height from 2 to 18 cm (1- to 4-leaf stage). Treated plants and controls were maintained in a controlled growth environment for 7 to 21 days after which time all species were compared to controls and visually evaluated. Plant response ratings, summarized in Table D, are based on a scale of 0 to 100 where 0 is no effect and 100 is complete control. A dash (-) response means no test result.

speedwell = experiment: Test D postemergence; format: in vivo, Veronica persica
Method in brief: as §1

windgrass = experiment: Test D preemergence; format: in vivo, Apera spica-venti
Method in brief: as §1

green foxtail = experiment: Test D preemergence; format: in vivo, Setaria viridis
Method in brief: as §1

canarygrass = experiment: Test D preemergence; format: in vivo, Phalaris minor
Method in brief: as §1

spring barley = experiment: Test D postemergence; format: in vivo, Hordeum vulgare; details: Postemergence, scale 0 to 100 (0 no effect, 100 complete control)
Method in brief: as §1

winter barley = experiment: Test D postemergence; format: in vivo, Hordeum vulgare; details: Postemergence, scale 0 to 100 (0 no effect, 100 complete control)
Method in brief: as §1

chamomile = experiment: Test D postemergence; format: in vivo, Matricaria inodora
Method in brief: as §1

galium = experiment: Test D preemergence; format: in vivo, Galium aparine
Method in brief: as §1

[1] = 31 g ai/ha, scale 0 (no effect) to 100 (complete control)
[2] = 62 g ai/ha, scale 0 to 100 (0 no effect, 100 complete control)
[3] = 125 g ai/ha, scale 0 to 100 (0 no effect, 100 complete control)
[4] = 250 g ai/ha, scale 0 to 100 (0 no effect, 100 complete control)

`N#Cc1cccc(Oc2ncc(Cl)cn2)c1-n1cc(-n2ccc(C(F)(F)F)n2)cn1` [Compound 284] was tested, and the “Plant response rating, Pigweed” value (pigweed; [1]) was 75, the “Plant response rating, Pigweed” value (pigweed; 125 g ai/ha, scale 0-100) was 100 and the “Plant response rating, Pigweed” value (pigweed; 250 g ai/ha, scale 0-100) was 100. For the same compound, the “Plant response rating, Chickweed” value (chickweed; 31 g ai/ha, scale 0-100) was 80, the “Plant response rating, Chickweed” value (chickweed; [2]) was 85 and the “Plant response rating, Chickweed” value (chickweed; [3]) was 90. For the same compound, the “Plant response rating, Chickweed” value (chickweed; [4]) was 100, the “Plant response rating, Speedwell” value (speedwell; 31 g ai/ha, scale 0-100) was 70 and the “Plant response rating, Speedwell” value (speedwell; [2]) was 75. For the same compound, the “Plant response rating, Speedwell” value (speedwell; [3]) was 100, the “Plant response rating, Speedwell” value (speedwell; [4]) was 100 and the “Plant response rating, Windgrass” value (windgrass; [1]) was 20. For the same compound, the “Plant response rating, Windgrass” value (windgrass; 125 g ai/ha, scale 0-100) was 45, the “Plant response rating, Windgrass” value (windgrass; 250 g ai/ha, scale 0-100) was 55 and the “Plant response rating, Foxtail, Green” value (green foxtail; [1]) was 10. For the same compound, the “Plant response rating, Foxtail, Green” value (green foxtail; 62 g ai/ha, scale 0-100) was 5, the “Plant response rating, Foxtail, Green” value (green foxtail; 125 g ai/ha, scale 0-100) was 10 and the “Plant response rating, Foxtail, Green” value (green foxtail; 250 g ai/ha, scale 0-100) was 80. For the same compound, the “Plant response rating, Canarygrass” value (canarygrass; [1]) was 30, the “Plant response rating, Canarygrass” value (canarygrass; 62 g ai/ha, scale 0-100) was 25 and the “Plant response rating, Canarygrass” value (canarygrass; 125 g ai/ha, scale 0-100) was 35. For the same compound, the “Plant response rating, Canarygrass” value (canarygrass; 250 g ai/ha, scale 0-100) was 60, the “Plant response rating, Barley, Spring” value (spring barley; 62 g ai/ha) was 15 and the “Plant response rating, Barley, Spring” value (spring barley; 31 g ai/ha) was 5. The “Plant response rating, Barley, Spring” value (spring barley; 125 g ai/ha) was 20, the “Plant response rating, Barley, Spring” value (spring barley; 250 g ai/ha) was 25 and the “Plant response rating, Barley, Winter” value (winter barley; 62 g ai/ha) was 15. For the same compound, the “Plant response rating, Barley, Winter” value (winter barley; 31 g ai/ha) was 15, the “Plant response rating, Barley, Winter” value (winter barley; 125 g ai/ha) was 20 and the “Plant response rating, Barley, Winter” value (winter barley; 250 g ai/ha) was 25. For the same compound, the “Plant response rating, Chamomile” value (chamomile; 31 g ai/ha, scale 0-100) was 0, the “Plant response rating, Chamomile” value (chamomile; [2]) was 0 and the “Plant response rating, Chamomile” value (chamomile; [3]) was 10. The “Plant response rating, Chamomile” value (chamomile; [4]) was 10, the “Plant response rating, Galium” value (galium; [1]) was 20 and the “Plant response rating, Galium” value (galium; 62 g ai/ha, scale 0-100) was 20. The “Plant response rating, Galium” value (galium; 125 g ai/ha, scale 0-100) was 20 and the “Plant response rating, Galium” value (galium; 250 g ai/ha, scale 0-100) was 25.
